Assay results from patent US11597724B2, “Herbicidally active 3-phenylisoxazoline-5-carboxamides of tetrahydro and dihydrofuran carboxylic acids and esters” (Bayer Aktiengesellschaft, priority 2017, dated 2023).

Columns and labels:
Assay type in all cases: in vivo
Alopecurus myosuroides = test: Pre-emergence herbicidal activity against ALOMY; settings: dosage 80 g/ha, scored visually after about 3 weeks vs untreated controls (100% = plants have died, 0% = like control plants); for pest or weed control at 80 g/ha: Alopecurus myosuroides, 504 h
Text: (§1) 1. Pre-Emergence Herbicidal Action and Crop Plant Compatibility Seeds of monocotyledonous and dicotyledonous weed plants and crop plants are placed in plastic or wood fiber pots and covered with soil. The compounds of the invention, formulated in the form of wettable powders (WP) or as emulsion concentrates (EC), are then applied onto the surface of the covering soil as aqueous suspension or emulsion with addition of 0.5% additive at a water application rate of 600 l/ha (converted). After the treatment, the pots are placed in a greenhouse and kept under good growth conditions for the trial plants. After about 3 weeks, the effect of the preparations is scored visually in comparison with untreated controls as percentages. For example, 100% activity=the plants have died, 0% activity=like control plants. ABUTH: Abutilon theophrasti ALOMY: Alopecurus myosuroides

Setaria viridis = test: Post-emergence herbicidal activity against SETVI; settings: dosage 320 g/ha, rated about 3 weeks after treatment; for pest or weed control at 320 g/ha: Setaria viridis, 504 h
Procedure, shortened: (§2)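 Greenhouse weeds in sandy loam were sprayed at the one-leaf stage, 2–3 weeks after sowing, with WP or EC formulations plus 0.5% additive at 600 l/ha water. About 3 weeks later, damage was rated visually against untreated controls, where 100% means plants dead and 0% means like control.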

Polygonum convolvulus = test: Post-emergence herbicidal activity against POLCO; settings: dosage 320 g/ha, rated about 3 weeks after treatment; for pest or weed control at 320 g/ha: Fallopia convolvulus, 504 h
Procedure, shortened: as §2

Veronica persica = test: Pre-emergence herbicidal activity against VERPE; settings: dosage 80 g/ha; for pest or weed control at 80 g/ha: Veronica persica, 504 h
Text: as §1, with “STEME: Stellaria media VERPE: Veronica persica” for “ABUTH: Abutilon theophrasti ALOMY: Alopecurus myosuroides”

Avena fatua = test: Post-emergence herbicidal activity against AVEFA; settings: dosage 320 g/ha, rated about 3 weeks after treatment; for pest or weed control at 320 g/ha: Avena fatua, 504 h
Procedure, shortened: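 Greenhouse pots of sandy loam; plants sprayed at one-leaf stage, 2 to 3 weeks after sowing, with WP or EC formulations in water plus 0.5% additive at 600 l/ha. Activity rated visually after about 3 weeks against untreated controls (100% = plants dead, 0% = like control).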

Stellaria media = test: Post-emergence herbicidal activity against STEME; settings: dosage 320 g/ha, rated about 3 weeks after treatment; for pest or weed control at 320 g/ha: Stellaria media, 504 h
Procedure, shortened: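 Greenhouse plants treated at one-leaf stage, 2–3 weeks after sowing, by spraying WP or EC formulations with 0.5% additive at 600 l/ha water. Visual rating about 3 weeks later versus untreated controls (100% = plants dead, 0% = like controls).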

Abutilon theophrasti = test: Post-emergence herbicidal activity against ABUTH; settings: dosage 320 g/ha, rated about 3 weeks after treatment; for pest or weed control at 320 g/ha: Abutilon theophrasti, 504 h
Procedure, shortened: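 Greenhouse-grown plants treated at one-leaf stage, 2 to 3 weeks after sowing, with WP or EC formulations sprayed as aqueous suspension/emulsion plus 0.5% additive at 600 l/ha. Activity rated visually about 3 weeks later versus untreated controls (100% = plants dead, 0% = like control).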

Row | SMILES | pest or weed control at 80 g/ha (Alopecurus myosuroides) | pest or weed control at 320 g/ha (Setaria viridis) | pest or weed control at 320 g/ha (Polygonum convolvulus) | pest or weed control at 80 g/ha (Veronica persica) | pest or weed control at 320 g/ha (Avena fatua) | pest or weed control at 320 g/ha (Stellaria media) | pest or weed control at 320 g/ha (Abutilon theophrasti) | Pre-emergence herbicidal activity against ALOMY in % (Alopecurus myosuroides) | Pre-emergence herbicidal activity against VERPE in % (Veronica persica) | Post-emergence herbicidal activity against SETVI in % (Setaria viridis) | Post-emergence herbicidal activity against POLCO in % (Polygonum convolvulus) | Post-emergence herbicidal activity against AVEFA in % (Avena fatua) | Post-emergence herbicidal activity against STEME in % (Stellaria media) | Post-emergence herbicidal activity against ABUTH in % (Abutilon theophrasti)
1 | COC(=O)[C@H]1C[C@@H](NC(=O)C2(C)CC(c3cc(F)cc(F)c3)=NO2)CO1 (relative stereo) [I-01, methyl cis-4-[[3-(3,5-difluorophenyl)-5-methyl-4H-isoxazole-5-carbonyl]amino]tetrahydrofuran-2-carboxylate] | 100% | 90% | 80% | 80% | 100% | 90% | 80% |  |  |  |  |  |  | 
2 | C=C[C@]1(C(=O)N[C@H]2CO[C@@H](C(=O)OC)C2)CC(c2cc(F)cc(F)c2)=NO1 (single isomer, unassigned) [I-11] |  | 90% | 90% |  | 100% | 90% | 90% | 100% | 100% |  |  |  |  | 
3 | C=C[C@]1(C(=O)N[C@H]2CO[C@@H](C(=O)OC)C2)CC(c2cc(F)cc(F)c2)=NO1 (single isomer, unassigned) [I-12] | 100% |  |  | 100% |  |  |  |  |  | 90% | 90% | 100% | 90% | 90%
4 | COC(=O)C1COCC1NC(=O)C1(C)CC(c2cc(F)cc(F)c2)=NO1 (centres unmarked) [I-19, methyl 4-[[3-(3,5-difluorophenyl)-5-methyl-4H-isoxazole-5-carbonyl]amino]tetrahydrofuran-3-carboxylate] | 90% | 80% | 80% | 90% | 100% | 90% | 80% |  |  |  |  |  |  | 
5 | COC(=O)C1COCC1NC(=O)[C@@]1(C)CC(c2cc(F)cc(F)c2)=NO1 (stereo partly drawn) [I-28, methyl 4-[[(5R)-3-(3,5-difluorophenyl)-5-methyl-4H-isoxazole-5-carbonyl]amino]tetrahydrofuran-3-carboxylate] | 100% | 80% | 80% | 90% | 100% | 80% | 80% |  |  |  |  |  |  | 
6 | COC(=O)C1COCC1NC(=O)C1(OC)CC(c2cc(Cl)cc(Cl)c2)=NO1 (centres unmarked) [I-29, methyl 4-[[3-(3,5-dichlorophenyl)-5-methoxy-4H-isoxazole-5-carbonyl]amino]tetrahydrofuran-3-carboxylate] | 90% | 80% | 80% | 100% | 90% | 80% | 80% |  |  |  |  |  |  | 
7 | CC(C)OC(=O)C1CC(NC(=O)C2(C)CC(c3cc(F)cc(F)c3)=NO2)CO1 (centres unmarked) [I-44] |  |  |  |  |  |  |  | 100% | 80% | 90% | 80% | 100% | 90% | 80%
8 | COC(=O)C1=C[C@@H](NC(=O)C2(C)CC(c3cccc(F)c3)=NO2)CO1 (stereo partly drawn) [I-46, methyl (3R)-3-[[3-(3-fluorophenyl)-5-methyl-4H-isoxazole-5-carbonyl]amino]-2,3-dihydrofuran-5-carboxylate] | 100% | 80% | 80% | 80% | 100% | 90% | 80% |  |  |  |  |  |  | 
